Patent US20250091994A1, “RAS/RAF BINDING INHIBITOR COMPOUND” (NATIONAL UNIVERSITY CORPORATION KOBE UNIVERSITY, priority 2021, published 2025)
Read-outs that look alike come from different tables or passages of the source.

Key:
[1] = molecular target: GTPγS-bound human HRasG12V / human c-Raf-1 Ras binding domain (RBD) (Homo sapiens (Human), UniProt P01112, G12V); assay: Ras-Raf binding inhibition ELISA
Experimental: The in vitro Ras-Raf binding inhibitory activity of the compound of the present invention was evaluated by an ELISA method (Enzyme-Linked ImmunoSorbent Assay) described below.
Ras and Raf used upon the evaluation were purified and activated by the following method.
Using a pGEX6P-1 vector (GE Healthcare), human HRasG12V (full length, 1-189 amino acid residues) and human c-Raf-1 Ras binding domain (RBD) (50-131 amino acid residues) were each allowed to express as a fusion body with glutathione S-transferase (GST) in E. coli.
GST-HRasG12V-expressing cells were subjected to ultrasonication in a buffer {50 mM Tris-HCl pH 7.4, 150 mM NaCl, 5 mM MgCl2, 1 mM ethylenediaminetetraacetic acid (EDTA), 1 mM dithiothreitol (DTT), 10% glycerol, and 1% Triton-X100}, and were then centrifuged at 100,000×g for 30 minutes, so as to collect the supernatant as a Ras protein fraction. HRasG12V in the supernatant was immobilized on a glutathione-agarose resin, and GST was then cleaved with PreScission Protease (GE Healthcare) for purification. The obtained HRasG12V was mixed with guanosine 5′-O-[gamma-thio]triphosphate trisodium salt (GTPTS) of 1000 times higher concentration at 30° C. for 1 hour, and thereafter, 20 mM MgCl2 (final concentration) was added to stop the reaction and collect the GTPgS-loaded HRasG12V as a product.
On the other hand, GST-c-Raf-1 RBD-expressing cells were subjected to ultrasonication in the same buffer as described above, and were then centrifuged at 100,000×g for 30 minutes, so as to collected the supernatant as a GST-c-Raf-1 RBD protein fraction.
The in vitro Ras-Raf binding inhibitory activity of the compound of the present invention was evaluated by an ELISA method described below.
GST-c-Raf-1 RBD diluted with a Ras-Raf binding buffer (50 mM Tris-HCl pH7.4, 150 mM NaCl, 5 mM MgCl2, 1 mM EDTA, and 1% Triton-X100) was added to each well of a glutathione-coated 96-well plate (Thermo Fisher Scientific.), and was incubated at 30° C. for 1 hour, to immobilize Raf on the well. The unbound free Raf was eliminated by washing the well with the Ras-Raf binding buffer three times. Subsequently, GTPTS-bound HRasG12V diluted with the Ras-Raf binding buffer and each compound solution (final DMSO concentration: 10%) were applied to each well, and the resulting mixture was then incubated at 30° C. for 1 hour, so that Ras and Raf were allowed to bind to each other. Thereafter, the plate was washed with the Ras-Raf binding buffer twice, and was then subjected to a blocking treatment at room temperature for 20 minutes, using TBS-Tween {10 mM Tris-HCl pH 7.4, 150 mM NaCl, and 0.05% (w/v) Tween-20}-5% (w/v) bovine serum albumin (BSA). After that, an anti-HRas antibody (C-20, Santa Cruz) or an anti-HRas antibody (259, Santa Cruz), which had been 1000 times diluted with TBS-Tween-5% BSA, was added to the reaction mixture, and incubated at room temperature for 1 hours. After the treatment with the primary antibody, the plate was washed with TBS-Tween-5% BSA three times, and a horseradish peroxidase-labeled secondary antibody against rabbit immunoglobulin G (GE Healthcare) of 1000 times diluted with TBS-Tween-5% BSA, was added to the plate, followed by incubation at room temperature for 1 hour. After the treatment with the secondary antibody, the plate was washed with TBS-Tween-5% BSA three times, and a substrate solution (TMB) was then added to the plate, followed by incubation at room temperature for 15 minutes for coloration. Finally, 2 M H2SO4 was added to stop color development (coloration reaction kit: Nacalai Tesque). The absorbance at 450 nm (OD450) was measured, so that the color intensity was quantified. Inhibition by the test compound was determined according to the following equation: […]
IC50 (*) in which the anti-HRas antibody (259, Santa Cruz) was used

[2] = test system: promyelocytic leukemia cells HL60 (N-RasQ61L); assay: Cell growth inhibition, suspension cells HL60; format: cell-based; settings: Homo sapiens, HL-60, 72 hours; for inhibition at 10 µM: read-out: HL-60 (NRasQ61L) % inhibition at 10 μM (***)
Experimental: The cell growth inhibitory activity of the compound of the present invention on human culture cells having active-type mutation in Ras was evaluated by the below-mentioned method using suspension cancer cells {acute lymphoblastic leukemia cells CCRF-CEM (K-RasG12D), promyelocytic leukemia cells HL60 (N-RasQ61L), acute lymphoblastic leukemia cells MOLT4 (N-RasG12C), and small cell lung cancer cells SHP77 (K-RasG12V)} and adherent cancer cells {large bowel cancer cells SW480 (K-RasG12V) and large bowel cancer cell SW620 (K-RasG12V)}.
(Case of suspension cells) The cells suspended in a medium containing 0.5% (v/v) fetal bovine serum (FBS) and each compound solution (final DMSO concentration: 1%) were seeded on a 96-well plate (2 to 4×10^4 cells/well), and the resulting mixture was then cultured at 37° C. in the presence of 5% CO2 for 72 hours.
Thereafter, the number of viable cells was measured using Cell Counting Reagent (Nacalai Tesque) in accordance with the manufacturer's instructions. Inhibition by the test compound was determined according to the following equation: […]

[3] = anti-HRas antibody C-20, read-out: ELISA IC50 (μM): 1st Ab_C-20
[4] = anti-HRas antibody 259 (*), read-out: ELISA IC50 (μM): 1st Ab_259 (*)

Chain of GTPγS-bound human HRasG12V / human c-Raf-1 Ras binding domain (RBD) (P01112 whole entry G12V, the tested form may be a part): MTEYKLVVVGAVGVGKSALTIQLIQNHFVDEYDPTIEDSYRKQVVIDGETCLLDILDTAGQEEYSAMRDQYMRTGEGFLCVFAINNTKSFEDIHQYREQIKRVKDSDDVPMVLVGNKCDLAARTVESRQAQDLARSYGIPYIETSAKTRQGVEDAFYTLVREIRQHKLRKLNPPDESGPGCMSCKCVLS

Which inhibition at 1 µM [1] does the source give for `CC(=O)N1/C(=C\c2cc(-c3cccc(C(=O)O)c3)c3cc(C(=O)N4CCOCC4)ccc3n2)C(=O)c2ccccc21` [Example 175, (Z)-3-(2-((1-acetyl-3-oxoindolin-2-ylidene)methyl)-6-(morpholine-4-carbonyl)quinolin-4-yl)benzoic acid] here?
The inhibition at 1 µM was 67.2%.

And the IC50 [1, 3]?
The IC50 was 0.5 µM.

`CC(=O)N1/C(=C\c2ccc3cc(CNC4CCN(C5COC5)CC4)ccc3n2)C(=O)c2ccccc21` [Example 138, (Z)-1-acetyl-2-((6-(((1-(oxetan-3-yl)piperidin-4-yl)amino)meth-yl)quinolin-2-yl)-methylene)indolin-3-one] was tested. Which IC50 [1, 4] did it give?
Its IC50 is 0.88 µM.

What about the inhibition at 3.3 µM ([2]; 3.3 μM (**), read-out: HL-60 (NRasQ61L) % inhibition at 3.3 μM (**)) of the same compound?
Its inhibition at 3.3 µM is 65%.

What does the source list for `CC(=O)N1/C(=C\c2cc(-c3cccnn3)c3cc(C(=O)N4CCOCC4)ccc3n2)C(=O)c2ccccc21` [Example 191, (Z)-1-acetyl-2-((6-(morpholine-4-carbonyl)-4-(pyridazin-3-yl)-quinolin-2-yl)-methylene)indolin-3-one]?
inhibition at 1 µM [1]: 49.2%; IC50 [1, 3]: 1.1 µM

Which inhibition at 100 µM [1] does the source give for `CC(=O)N1/C(=C\c2ccc(OCC(N)=O)cc2)C(=O)c2ccccc21` [Example 5, 2-(4-((1-acetyl-3-oxoindolin-2-ylidene)methyl)-phenoxy)acetamide] here?
The inhibition at 100 µM was 71%.

How did the inhibition at 10 µM [2] turn out when `CC(=O)N1/C(=C/c2nc3ccc(C(=O)N4CC(C)OC(C)C4)cc3s2)C(=O)c2ccccc21` (stereo not drawn) [Example 101, (E)-1-acetyl-2-((6-(2,6-dimethyl-morpholine-4-carbonyl)benzo [d]thiazol-2-yl)-methylene)indolin-3-one] was run?
The inhibition at 10 µM was 87%.

With `CC(=O)N1/C(=C\c2nc3cc(C(=O)N4CC(C)OC(C)C4)ccc3s2)C(=O)c2ccccc21` (stereo not drawn) [Example 98, (Z)-1-acetyl-2-((5-(2,6-dimethyl-morpholine-4-carbonyl)benzo [d]thiazol-2-yl)-methylene)indolin-3-one] as the compound, how does the IC50 [1, 4] read?
The IC50 was 0.68 µM.

And the inhibition at 10 µM [2]?
The inhibition at 10 µM was 100%.

For `COc1cc(/C=C2/C(=O)c3ccccc3N2C(C)=O)ccc1OCCN1CCOCC1` [Example 7, (Z)-1-acetyl-2-(3-methoxy-4-(2-morpholinoethoxy)-benzylidene)indolin-3-one], which inhibition at 100 µM [1] is on record?
Its inhibition at 100 µM is 83%.

With `CC(=O)N1/C(=C\c2ccc3cc(CNC4C[C@@H](C)O[C@@H](C)C4)ccc3n2)C(=O)c2ccccc21` (mixture of isomers) [Example 136, (Z)-1-acetyl-2-((6-((((2SR,6RS)-2,6-dimethyltetra-hydro-2H-pyran-4-yl)amino)meth-yl)quinolin-2-yl)-methylene)indolin-3-one] as the compound, how does the IC50 [1, 4] read?
Its IC50 is 1.7 µM.

With `COc1cc(/C=C2/C(=O)c3ccccc3N2C(C)=O)ccc1O` [Example 3, 1-acetyl-2-(4-hydroxy-3-meth-oxybenzylidene)-indolin-3-one] as the compound, how does the inhibition at 100 µM [1] read?
Its inhibition at 100 µM is 57%.

For `CC(=O)N1/C(=C\c2ccc3oc(C(=O)N4CCOCC4)cc3n2)C(=O)c2ccccc21` [Example 72, (Z)-1-acetyl-2-((2-(morpholine-4-carbonyl)furo [3,2-b]pyridin-5-yl)methylene)-indolin-3-one], which IC50 [1, 4] is on record?
The IC50 was 3.6 µM.

Which results are given for `CC(=O)N1/C(=C\c2cc(-c3nc[nH]n3)c3cc(C(=O)N4CCOCC4)ccc3n2)C(=O)c2ccccc21` (racemic) [Example 212, 1-acetyl-2-((6-(morpholine-4-carbonyl)-4-(1H-1,2,4-triazol-3-yl)-quinolin-2-yl)-methylene)indolin-3-one]?
inhibition at 1 µM [1]: 59.9%; IC50 [1, 3]: 0.8 µM

With `CC(=O)N1/C(=C\c2ccc(OCC(N)=O)c(OC(C)C)c2)C(=O)c2ccccc21` [Example 30, 2-(4-((1-acetyl-3-oxoindolin-2-ylidene)methyl)-2-isopropoxy-phenoxy)acet-amide] as the compound, how does the inhibition at 100 µM [1] read?
Its inhibition at 100 µM is 63%.

`CC(=O)N1/C(=C\c2nc3ccc(CNC4CCOCC4)cc3s2)C(=O)c2ccccc21` [Example 134] was tested. Which IC50 [1, 4] did it give?
The IC50 was 1.1 µM.

`CC(=O)N1/C(=C\c2ccc(OCC(=O)N3CCOCC3)c(F)n2)C(=O)c2ccccc21` [Example 32, (Z)-1-acetyl-2-((6-fluoro-5-(2-morpholino-2-oxoethoxy)-pyridin-2-yl)-methylene)-indolin-3-one] was tested. Which IC50 [1, 3] did it give?
The IC50 was 14 µM.

How did the inhibition at 1 µM [1] turn out when `CC(=O)N1/C(=C\c2cc(-c3ccc(C(=O)O)cc3)c3cc(C(=O)N4CCOCC4)ccc3n2)C(=O)c2ccccc21` [Example 174, (Z)-4-(2-((1-acetyl-3-oxoindolin-2-ylidene)methyl)-6-(morpholine-4-carbonyl)quinolin-4-yl)benzoic acid] was run?
The inhibition at 1 µM was 70.1%.

What about the IC50 [1, 3] of the same compound?
The IC50 was 0.5 µM.

With `CC(=O)N1/C(=C\c2ccc(C(=O)N3CCOCC3)cn2)C(=O)c2ccccc21` [Example 70, (Z)-1-acetyl-2-((5-(morpholine-4-carbonyl)pyridin-2-yl)methylene)-indolin-3-one] as the compound, how does the IC50 [1, 3] read?
The IC50 was 14 µM.

And the inhibition at 1 µM ([2]; 1 μM, read-out: HL-60 (NRasQ61L) % inhibition at 1 μM)?
Its inhibition at 1 µM is 33%.

Which results are given for `CC(=O)N1/C(=C\c2cc(-c3ccccc3C(=O)O)c3cc(C(=O)N4CCOCC4)ccc3n2)C(=O)c2ccccc21` [Example 176, (Z)-2-(2-((1-acetyl-3-oxoindolin-2-ylidene)methyl)-6-(morpholine-4-carbonyl)quinolin-4-yl)benzoic acid]?
inhibition at 1 µM [1]: 51.1%; IC50 [1, 3]: 1 µM

What does the source list for `CC(=O)N1/C(=C\c2cc(-c3cccc4cccnc34)c3cc(C(=O)O)ccc3n2)C(=O)c2ccccc21` [Example 155, (Z)-2-((1-acetyl-3-oxoindolin-2-ylidene)methyl)-[4,8′-biquinoline]-6-carboxylic acid]?
inhibition at 1 µM [1]: 59.3%; IC50 [1, 3]: 0.7 µM

With `COc1cc(/C=C2/C(=O)c3ccccc3N2C(C)=O)ccc1OCCOc1ccccc1` [Example 12, 1-acetyl-2-(3-methoxy-4-(2-phenoxyethoxy)-benzylidene)-indolin-3-one] as the compound, how does the inhibition at 100 µM [1] read?
Its inhibition at 100 µM is 49%.

For `CC(=O)N1/C(=C\c2ccc3cc(CNC4CC(C)O[C@H](C)C4)ccc3n2)C(=O)c2ccccc21` (mixture of isomers) [Example 137, (Z)-1-acetyl-2-((6-((((2SR,6SR)-2,6-dimethyltetra-hydro-2H-pyran-4-yl)amino)meth-yl)quinolin-2-yl)-methylene)indolin-3-one], which IC50 [1, 4] is on record?
Its IC50 is 1.3 µM.

How did the inhibition at 10 µM [2] turn out when `CC(=O)N1/C(=C/c2nc3ccc(CNC4CCOCC4)cc3s2)C(=O)c2ccccc21` [Example 135, (E)-1-acetyl-2-((6-(((tetrahydro-2H-pyran-4-yl)-amino)methyl)-benzo[d]thiazol-2-yl)methylene)-indolin-3-one] was run?
The inhibition at 10 µM was 98%.
